According to US6491894B1, “NGR receptor and methods of identifying tumor homing molecules that home to angiogenic vasculature using same” (The Burnham Institute, priority 1998, dated 2002):
Where no end group is shown, it is not given here.

Columns and labels:
CD13 [1] = target: T1, CD13 (Gallus gallus, UniProt O57579); assay: bFGF-induced angiogenesis in chicken chorioallantoic membrane (CAM); type: in vivo; conditions: topical, 3 days
T1 construct: CD13 is expressed in CAM angiogenic vasculature; from tissue; host or cells: chorioallantoic membrane of 10-day chicken embryos
T1 sequence (O57579 1-972): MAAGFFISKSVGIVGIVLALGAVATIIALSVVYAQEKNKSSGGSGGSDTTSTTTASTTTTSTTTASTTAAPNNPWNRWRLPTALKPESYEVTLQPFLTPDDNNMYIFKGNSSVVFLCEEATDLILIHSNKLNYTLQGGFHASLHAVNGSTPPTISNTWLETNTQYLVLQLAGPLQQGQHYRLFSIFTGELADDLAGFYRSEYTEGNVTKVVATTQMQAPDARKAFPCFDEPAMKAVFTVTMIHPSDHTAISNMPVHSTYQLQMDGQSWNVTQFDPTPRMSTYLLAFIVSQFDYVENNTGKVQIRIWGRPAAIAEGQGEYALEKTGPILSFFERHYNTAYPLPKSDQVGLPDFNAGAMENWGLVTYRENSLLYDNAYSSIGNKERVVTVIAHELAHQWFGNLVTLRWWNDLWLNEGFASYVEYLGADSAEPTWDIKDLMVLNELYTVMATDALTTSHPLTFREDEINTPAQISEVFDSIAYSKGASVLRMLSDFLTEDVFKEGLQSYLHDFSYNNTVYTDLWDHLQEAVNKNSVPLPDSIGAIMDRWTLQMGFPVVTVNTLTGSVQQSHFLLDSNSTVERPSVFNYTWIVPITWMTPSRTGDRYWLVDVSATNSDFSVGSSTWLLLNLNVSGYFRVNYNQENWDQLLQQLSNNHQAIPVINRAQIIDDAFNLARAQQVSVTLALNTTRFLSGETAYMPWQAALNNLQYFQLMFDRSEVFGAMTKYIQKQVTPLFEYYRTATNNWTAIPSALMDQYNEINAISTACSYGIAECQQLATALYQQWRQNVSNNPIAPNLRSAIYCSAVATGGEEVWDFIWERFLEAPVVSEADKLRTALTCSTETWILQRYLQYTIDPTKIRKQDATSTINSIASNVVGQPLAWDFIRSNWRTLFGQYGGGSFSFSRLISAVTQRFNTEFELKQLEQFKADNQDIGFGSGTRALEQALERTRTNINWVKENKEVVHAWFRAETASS
Excerpt: Various treatments were applied topically, and, after 3 days, the filters and surrounding CAMs were resected and fixed in formalin.
Each bar represents the mean number of vessels and standard errors from 8 CAMs on each group.

[2] = high doses; cited from earlier work
CD13/aminopeptidase N = CD13/aminopeptidase N (Homo sapiens, UniProt P15144); conditions: cited from earlier work
CD13/aminopeptidase N, sequence (P15144 whole entry): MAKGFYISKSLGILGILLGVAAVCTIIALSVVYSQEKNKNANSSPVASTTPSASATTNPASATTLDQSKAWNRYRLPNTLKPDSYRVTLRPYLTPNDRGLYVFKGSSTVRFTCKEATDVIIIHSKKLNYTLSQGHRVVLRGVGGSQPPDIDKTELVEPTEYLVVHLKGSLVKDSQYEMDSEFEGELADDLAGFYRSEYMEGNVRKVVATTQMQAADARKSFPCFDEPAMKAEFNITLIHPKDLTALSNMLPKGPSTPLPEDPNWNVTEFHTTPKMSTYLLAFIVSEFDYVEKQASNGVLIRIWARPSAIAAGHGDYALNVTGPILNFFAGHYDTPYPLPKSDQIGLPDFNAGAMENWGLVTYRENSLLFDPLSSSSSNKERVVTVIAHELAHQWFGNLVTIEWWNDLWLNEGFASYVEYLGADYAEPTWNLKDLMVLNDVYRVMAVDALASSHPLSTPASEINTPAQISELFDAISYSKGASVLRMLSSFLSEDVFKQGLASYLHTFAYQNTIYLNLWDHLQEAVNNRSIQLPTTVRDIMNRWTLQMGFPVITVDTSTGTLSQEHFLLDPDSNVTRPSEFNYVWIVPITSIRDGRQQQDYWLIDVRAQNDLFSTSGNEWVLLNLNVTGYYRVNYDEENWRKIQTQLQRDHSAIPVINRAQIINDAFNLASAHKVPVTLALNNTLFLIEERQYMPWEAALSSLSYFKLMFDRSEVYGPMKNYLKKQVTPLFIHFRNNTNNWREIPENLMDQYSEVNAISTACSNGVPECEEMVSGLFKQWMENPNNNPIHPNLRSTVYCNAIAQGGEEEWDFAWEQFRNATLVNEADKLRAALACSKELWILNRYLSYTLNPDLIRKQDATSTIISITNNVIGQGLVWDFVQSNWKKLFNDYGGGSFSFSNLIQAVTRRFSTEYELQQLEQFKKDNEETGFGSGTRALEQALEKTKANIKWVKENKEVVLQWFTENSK

CD13 [3] = target: T2, CD13 (Homo sapiens, UniProt P15144); assay: Phage binding assays with CD13/APN-transfected cells; type: cell-based; parameters: expressed in transfected cells; host or cells: Molt-4 human T cell leukemia; conditions: 250 and 500 μg/ml
T2 sequence (P15144 whole entry): as above
Procedure: The CNGRC phage binds specifically to cells transfected with CD13. […] Briefly, mock transfected Molt-4 cells (“Molt-4/mock”) and cells transfected with CD13 (“Molt-4/CD13”) were incubated with CNGRC (SEQ ID NO:8) phage or with control Fd phage lacking an insert (2×10^9 transducing units (TU) per sample). Synthetic peptides, CNGRC (SEQ ID NO:8) or the negative control CARAC (SEQ ID NO:221), were pre-incubated with the cells at 250 and 500 μg/ml. After extensive washing, bound phage were quantitated by infection of bacteria as described above.

CD13/APN = target: T3, CD13/APN (Homo sapiens, UniProt P15144); assay: Affinity chromatography of cell extracts on immobilized peptide; type: binding; conditions: Molt-4/CD13, MDA-MB-435/CD13 or HL-60 cell extracts
T3 construct: Experiments were performed using HL-60 cell extracts because they are known to express CD13/APN; endogenous in cells; host or cells: HL-60 cells (extract)
T3 sequence (P15144 whole entry): as above
Procedure: To further characterize the interaction of CD13/APN with the NGR peptide, affinity chromatography on the CNGRC peptide was performed. The column was prepared by coupling the CNGRC peptide to SEPHAROSE (Pharmacia; Piscataway N.J.). Elution was effected with soluble CNGRC peptide. […] Extracts of Molt-4 and MDA-MB-435 cells transfected with CD13/APN were also characterized by using affinity chromatography, with extracts of the mock transfected counterparts used as negative controls.
The fractions were also analyzed for CD13 enzymatic activity using AlapNA as the substrate.

CD13 [4] = target: T2, CD13; assay: Phage binding to immobilized CD13; parameters: Kaposi's sarcoma tumor cell octylglucoside extracts were used as a source of CD13/APN; endogenous in cells; host or cells: Kaposi's sarcoma tumor cells (octylglucoside extract); conditions: 200 μg/well
Procedure: In FIG. 4B, NGR-containing phage were assayed for the ability to bind CD13. […] Various phage were added to the wells at 2×10^9 transducing units (TU) per well. […] The data were expressed as means and standard errors from triplicate wells.
The data shown were expressed as means and standard errors from triplicate wells.

[5] = system: MDA-MB-435 derived tumors; assay: In vivo targeting of phage to breast carcinoma xenografts (phage recovery); parameters: species or system mouse
Procedure: When the tumors attained a diameter of about 1 cm, phage expressing a specific RGD-containing peptide were administered to the tumor bearing mouse. Similar results to those discussed below also were obtained with nude mice bearing tumors formed by implantation of human melanoma C8161 cells or by implantation of mouse B16 melanoma cells.
1×10^9 phage expressing the RGD-containing peptide, RGD-4C ([…]; SEQ ID NO:1; see, Koivunen et al., supra, 1995) or control (insertless) phage were injected intravenously (iv) into the mice and allowed to circulate for 4 min. The mice then were snap frozen or perfused through the heart while under anesthesia, and various organs, including tumor, brain and kidney, were removed and the phage present in the organs was quantitated (see U.S. Pat. No. 5,622,699; Pasqualini and Ruoslahti, supra, 1996).
Phage displaying tumor homing peptides were recovered from breast carcinoma xenografts. […] The mean number of phage recovered from the tumor or control tissue (brain) and the standard error of the mean (SEM) from triplicate platings are shown in FIG. 1.
An insertless phage with a different selective marker (ampicillin instead of tetracycline) was co-injected with the NGR phage at the same input to assess specificity within the same tumor-bearing animal. The ratios were calculated using the number of co-injected control ampicillin-resistant phage recovered from the same tissues. The phage were quantitated from triplicate platings on tetracycline (the homing phage) or ampicillin (control phage) selective plates. Various additional control phage were injected separately into tumor-bearing mice. These controls included: fd-tet phage without insert; unselected phage library mixtures; phage selected and shown to home to other normal vascular beds; and phage displaying peptides that were unrelated to NGR. The RGD-4C ([…]; SEQ ID NO:1) phage served as a positive control.

[6] = Acute toxicity in mice bearing extremely large tumors; conditions: mouse, in vivo
[7] = system: MDA-MB-435 breast carcinoma; assay: Tumor therapy of mice bearing MDA-MB-435 breast carcinoma; type: in vivo, mouse
Procedure: Female 2-month old Balb c nu/nu mice (Harlan Sprague Dawley; San Diego Calif.) were used for these studies and were cared for according to the Burnham Institute animal facility guidelines. […] Tumors were allowed to grow to a size of about 1 cm^3 (about 5% of the mouse's body weight) before starting the treatment experiments, except for the toxicity experiments as discussed below.
Weekly doxorubicin/peptide conjugate or control treatments (5 μg/mouse/week of doxorubicin-equivalent) were administered intravenously. In some experiments, as indicated, a dose of 30 μg/mouse was administered every 3 weeks. […] As an additional control, in some experiments the tumor homing peptide was mixed with doxorubicin, without linking, and the mixture was administered to tumor bearing mice.
Mice were anesthetized with a tribromoethanol-based anesthetic mixture (AVERTIN; Papaioannou and Fox, Lab. Anim. 43:189-192 (1993)) before each treatment. Anesthetization facilitated the tail vein injections (final volume, 200 μl) and allowed precise serial three dimensional tumor size measurements. Tumor volume calculations were based on the equation for the volume of an ovaloid: V=4/3(nabc), where a, b, and c are ½ of the measured diameters in each of the three dimensions.
Briefly, mice with size-matched tumors (˜1000 mm^3) were randomized into four treatment groups (six animals per group): vehicle only, free doxorubicin, doxorubicin-control peptide, and doxorubicin-CNGRC (SEQ ID NO:8). Mice were treated at 5 μg/mouse/week of doxorubicin-equivalent, and the difference in tumor volumes between day 1 and day 28 determined (FIG. 11A).

Hodgkin's lymphoma = assay: Treatment of mice bearing Hodgkin's lymphoma; type: in vivo; conditions: two doses, 40 μg/mouse doxorubicin equivalent, tumors ~5000 mm^3
Procedure: Mice bearing large (˜5000 mm^3) Hodgkin's lymphoma (eight animals per group) were randomized to receive two doses of free doxorubicin plus unconjugated CNGRC peptide or doxorubicin-CNGRC (SEQ ID NO:8) conjugate at 40 μg/mouse of doxorubicin equivalent.

[8] = 5 μg/mouse/week doxorubicin-equivalent iv

Compound: CC(C)C[C@H](NC(=O)[C@@H](O)[C@H](N)Cc1ccccc1)C(=O)O [bestatin]
- effect on bFGF-induced angiogenesis in CAM (CD13 [1]): suppress bFGF-induced angiogenesis
- effect on metastasis [2]: marked suppression of experimental and spontaneous metastasis
- block of cell-surface CD13/aminopeptidase N enzymatic activity (CD13/aminopeptidase N): potently blocked

Compound: CNGRC
- inhibition of CNGRC phage binding to CD13 transfected cells by synthetic peptide (CD13 [3]): blocked
- elution of CD13/APN from the CNGRC column by soluble peptide (CD13/APN): yielded fractions containing functional CD13/APN
- inhibition of NGR-phage binding to CD13 by peptide (CD13 [4]): Inhibition
- inhibition of accumulation of the two other NGR-displaying phage by co-injected soluble peptide ([5]; breast carcinoma xenografts): also inhibited the accumulation
- inhibition of tumor homing of CNGRCVSGCAGRC (NGR) phage by co-injected soluble peptide ([5]; breast carcinoma xenografts): inhibited the accumulation
- inhibition of tumor homing of RGD-4C phage by co-injected soluble peptide ([5]; increasing amounts of peptide): not inhibited

Compound: doxorubicin/CNGRC (not fully specified (bridges); cysteine pairing not given here; also: doxorubicin conjugate)
- toxicity compared with free doxorubicin [6]: less toxic than free doxorubicin
- survival [7, 8]: A marked effect on survival
- tumor size versus doxorubicin control [7, 8]: significantly smaller
- survival versus doxorubicin alone ([7]; 5 μg/mouse/week or single dose 200 μg/mouse doxorubicin equivalent): lived longer
- cures ([7]; mouse, in vivo): Cures were also observed
- effect on tumor growth ([7]; relative to vehicle alone): almost completely suppressed tumor growth
- survival versus unconjugated peptide doxorubicin mixture (Hodgkin's lymphoma): lived longer
